Values quoted from earlier work, collected in patent publication US20230181690A1, “METHODS FOR TREATING ANEMIA USING AN ACTRIIB LIGAND TRAP AND FEDRATINIB” (Celgene Corporation, priority 2020, published 2023).
Where a chain is given by its changes, count along the chain named. One block for each molecule: values may come before it.

Key:
[1] = system: MPN-associated myelofibrosis
[2] = system: intermediate-2 or high-risk MF; conditions: previously untreated patients with intermediate-2 or high-risk MF
[3] = system: cell models expressing mutationally active JAK2 or FLT3
[4] = system: cell models expressing mutationally active JAK2 or FLT3; remark: listed apart in the source
[5] = system: JAK2V617F-driven myeloproliferative disease; conditions: mouse, in vivo
GDF-11 = biological target: T1, GDF-11 (Homo sapiens, UniProt O95390)
T1 sequence (O95390 299-407): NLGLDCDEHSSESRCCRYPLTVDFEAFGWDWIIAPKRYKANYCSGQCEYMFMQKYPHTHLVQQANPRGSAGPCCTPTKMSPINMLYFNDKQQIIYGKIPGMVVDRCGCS

exacerbation of anemia ([1]; patients with MPN-associated myelofibrosis): can exacerbate the anemia
Molecule: N#CC[C@H](C1CCCC1)n1cc(-c2ncnc3[nH]ccc23)cn1 [ruxolitinib]

binding to activin relative to ActRIIB(20-134)-Fc (activin): reduced binding
binding to GDF-11 relative to ActRIIB(20-134)-Fc (GDF-11): reduced binding
B1: ActRIIB(20-119)-Fc: ActRIIB-Fc fusion protein containing amino acids 20-119 of SEQ ID NO:14 (SEQ ID NO:18) (protein)
chain: GRGEAETRECIYYNANWELERTNQSGLERCEGEQDKRLHCYASWRNSSGTIELVKKGCWLDDFNCYDRQECVATEENPQVYFCCCEGNFCNERFTHLPEA
modifications: human ActRIIB soluble (extracellular), processed polypeptide sequence with the C-terminal 15 aa deleted (aa 20-119 of SEQ ID NO14)

More lines, now with the values behind:

Molecule: Cc1cnc(Nc2ccc(OCCN3CCCC3)cc2)nc1Nc1cccc(S(=O)(=O)NC(C)(C)C)c1 [fedratinib, N-tert-butyl-3-[(5-methyl-2-{4-[2-(pyrrolidin-1-yl)ethoxy]anilino}pyrimidin-4-yl)amino]benzenesulfonamide]
thrombocytopenia and anemia associated with therapy ([1]; patients): can be associated with moderate to severe thrombocytopenia and anemia
potency for JAK2 over family members JAK1, JAK3 and TYK2 (Janus Kinase 2 (JAK2)): higher potency for JAK2 over family members JAK1, JAK3 and tyrosine kinase 2 (TYK2)
clinical efficacy [2]: demonstrated clinical efficacy
cell proliferation [3]: inhibited cell proliferation
phosphorylation of STAT3/5 proteins [4]: reduced phosphorylation
disease-associated symptoms [5]: improved disease-associated symptoms, including reduction of white blood cells, hematocrit, splenomegaly, and fibrosis
phosphorylation of STAT3/5 [5]: blocked phosphorylation of STAT3/5

B2: A64: Fc fusion protein having the ActRIIB extracellular sequence with an alanine at position 64 of SEQ ID NO:2 (protein)
chain: SGRGEAETRECIYYNANWELERTNQSGLERCEGEQDKRLHCYASWANSSGTIELVKKGCWLDDFNCYDRQECVATEENPQVYFCCCEGNFCNERFTHLPEAGGPEVTYEPPPTAPTGGGTHTCPPCPAPELLGGPSVFLFPPKPKDTLMISRTPEVTCVVVDVSHEDPEVKFNWYVDGVEVHNAKTKPREEQYNSTYRVVSVLTVLHQDWLNGKEYKCKVSNKALPVPIEKTISKAKGQPREPQVYTLPPSREEMTKNQVSLTCLVKGFYPSDIAVEWESNGQPENNYKTTPPVLDSDGSFFLYSKLTVDKSRWQQGNVFSCSVMHEALHNHYTQKSLSLSPGK
modifications: fusion protein comprising a soluble extracellular domain of ActRIIB (A64; SEQ ID NO 3) fused to an Fc domain
affinity for activin (activin): relatively low affinity
affinity for GDF-11 (GDF-11): relatively low affinity

B3: R64: Fc fusion protein with an arginine at position 64 of the ActRIIB precursor amino acid sequence (protein)
chain: B2 chain with A46R
modifications: fusion protein comprising a soluble extracellular domain of ActRIIB (R64; SEQ ID NO15) fused to an Fc domain
affinity for activin (activin): low nanomolar to high picomolar range
affinity for GDF-11 (GDF-11): low nanomolar to high picomolar range
